Data: PubChem BioAssay (NCI)
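Five compound concentrations were applied to cells in 96-well plates for 48 hours; endpoints were derived by simple linear interpolation of the resulting dose-response curve. The concentration for 50% growth inhibition is given as GI50. TGI is the concentration that stops growth completely.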

Key:
Assay in all cases: DTP human tumour cell line panel, 48 h
786-0 renal = tested on: 786-0 renal
A549 NSCLC = tested on: A549 NSCLC
ACHN renal = tested on: ACHN renal
BT-549 breast = tested on: BT-549 breast
CAKI-1 renal = tested on: CAKI-1 renal
CCRF-CEM leukemia = tested on: CCRF-CEM leukemia
COLO 205 colon = tested on: COLO 205 colon
DU-145 prostate = tested on: DU-145 prostate
EKVX NSCLC = tested on: EKVX NSCLC
HCC-2998 colon = tested on: HCC-2998 colon
HCT-116 colon = tested on: HCT-116 colon
HCT-15 colon = tested on: HCT-15 colon
HOP-62 NSCLC = tested on: HOP-62 NSCLC
HOP-92 NSCLC = tested on: HOP-92 NSCLC
HS 578T breast = tested on: HS 578T breast
HT29 colon = tested on: HT29 colon
IGROV1 ovarian = tested on: IGROV1 ovarian
KM12 colon = tested on: KM12 colon
LOX IMVI melanoma = tested on: LOX IMVI melanoma
M14 melanoma = tested on: M14 melanoma
MCF7 breast = tested on: MCF7 breast
MDA-MB-231 breast = tested on: MDA-MB-231 breast
MDA-MB-435 = tested on: MDA-MB-435
MOLT-4 leukemia = tested on: MOLT-4 leukemia
NCI-H23 lung = tested on: NCI-H23 lung
NCI-H460 lung = tested on: NCI-H460 lung
NCI-H522 lung = tested on: NCI-H522 lung
NCI/ADR-RES ovarian = tested on: NCI/ADR-RES ovarian
OVCAR-3 ovarian = tested on: OVCAR-3 ovarian
OVCAR-4 ovarian = tested on: OVCAR-4 ovarian
OVCAR-5 ovarian = tested on: OVCAR-5 ovarian
OVCAR-8 ovarian = tested on: OVCAR-8 ovarian
PC-3 prostate = tested on: PC-3 prostate
RPMI-8226 leukemia = tested on: RPMI-8226 leukemia
RXF 393 renal = tested on: RXF 393 renal
SF-268 CNS = tested on: SF-268 CNS
SF-295 CNS = tested on: SF-295 CNS
SF-539 CNS = tested on: SF-539 CNS
SK-MEL-2 melanoma = tested on: SK-MEL-2 melanoma
SK-MEL-28 melanoma = tested on: SK-MEL-28 melanoma
SK-MEL-5 melanoma = tested on: SK-MEL-5 melanoma
SK-OV-3 ovarian = tested on: SK-OV-3 ovarian
SN12C renal = tested on: SN12C renal
SNB-19 CNS = tested on: SNB-19 CNS
SNB-75 CNS = tested on: SNB-75 CNS
SW-620 colon = tested on: SW-620 colon
T-47D breast = tested on: T-47D breast
TK-10 renal = tested on: TK-10 renal
U251 CNS = tested on: U251 CNS
UACC-257 melanoma = tested on: UACC-257 melanoma
UACC-62 melanoma = tested on: UACC-62 melanoma
UO-31 renal = tested on: UO-31 renal

O=C(Cc1csc2nc(-c3ccc(Br)cc3)cn12)N/N=C/c1ccccc1
GI50 (786-0 renal): 27.7 µM | TGI (786-0 renal): > 100 µM | GI50 (A549 NSCLC): 13.5 µM | TGI (A549 NSCLC): 40.9 µM | GI50 (ACHN renal): 10.8 µM | TGI (ACHN renal): 25.6 µM | GI50 (BT-549 breast): 13 µM | TGI (BT-549 breast): 49.1 µM | GI50 (CAKI-1 renal): 30.3 µM | TGI (CAKI-1 renal): 82.2 µM | GI50 (CCRF-CEM leukemia): 17.3 µM | TGI (CCRF-CEM leukemia): > 100 µM | GI50 (COLO 205 colon): 66.1 µM | TGI (COLO 205 colon): > 100 µM | GI50 (DU-145 prostate): 14.6 µM | TGI (DU-145 prostate): 45.1 µM | GI50 (EKVX NSCLC): 6.95 µM | TGI (EKVX NSCLC): 52.5 µM | GI50 (HCC-2998 colon): 13.2 µM | TGI (HCC-2998 colon): 49.3 µM | GI50 (HCT-116 colon): 9.32 µM | TGI (HCT-116 colon): 21.2 µM | GI50 (HCT-15 colon): 16.3 µM | TGI (HCT-15 colon): > 100 µM | GI50 (HOP-62 NSCLC): 15.3 µM | TGI (HOP-62 NSCLC): 39.8 µM | GI50 (HOP-92 NSCLC): 12.2 µM | TGI (HOP-92 NSCLC): 37 µM | GI50 (HS 578T breast): 16.4 µM | TGI (HS 578T breast): 51.1 µM | GI50 (HT29 colon): 44 µM | TGI (HT29 colon): > 100 µM | GI50 (IGROV1 ovarian): 11.2 µM | TGI (IGROV1 ovarian): 32.7 µM | GI50 (KM12 colon): 26.1 µM | TGI (KM12 colon): > 100 µM | GI50 (LOX IMVI melanoma): 12.2 µM | TGI (LOX IMVI melanoma): 90.8 µM | GI50 (M14 melanoma): 20.9 µM | TGI (M14 melanoma): > 100 µM | GI50 (MCF7 breast): 75.9 µM | TGI (MCF7 breast): > 100 µM | GI50 (MDA-MB-231 breast): 13 µM | TGI (MDA-MB-231 breast): 58.2 µM | GI50 (MDA-MB-435): 12.1 µM | TGI (MDA-MB-435): 51.8 µM | GI50 (MOLT-4 leukemia): 6.69 µM | TGI (MOLT-4 leukemia): 37 µM | GI50 (NCI-H23 lung): 12.6 µM | TGI (NCI-H23 lung): 61.4 µM | GI50 (NCI-H460 lung): 53 µM | TGI (NCI-H460 lung): > 100 µM | GI50 (NCI-H522 lung): 14.2 µM | TGI (NCI-H522 lung): 60.8 µM | GI50 (NCI/ADR-RES ovarian): 13.6 µM | TGI (NCI/ADR-RES ovarian): 67.6 µM | GI50 (OVCAR-3 ovarian): 24.1 µM | TGI (OVCAR-3 ovarian): 46.3 µM | GI50 (OVCAR-4 ovarian): 47.1 µM | TGI (OVCAR-4 ovarian): > 100 µM | GI50 (OVCAR-5 ovarian): 30.7 µM | TGI (OVCAR-5 ovarian): > 100 µM | GI50 (OVCAR-8 ovarian): 2360 nM | TGI (OVCAR-8 ovarian): 20.5 µM | GI50 (PC-3 prostate): 20.2 µM | TGI (PC-3 prostate): > 100 µM | GI50 (RPMI-8226 leukemia): 7.38 µM | TGI (RPMI-8226 leukemia): > 100 µM | GI50 (RXF 393 renal): 14.5 µM | TGI (RXF 393 renal): 38.8 µM | GI50 (SF-268 CNS): > 100 µM | TGI (SF-268 CNS): > 100 µM | GI50 (SF-295 CNS): 12.1 µM | TGI (SF-295 CNS): 37.4 µM | GI50 (SF-539 CNS): 16.2 µM | TGI (SF-539 CNS): 39.4 µM | GI50 (SK-MEL-2 melanoma): 33 µM | TGI (SK-MEL-2 melanoma): > 100 µM | GI50 (SK-MEL-28 melanoma): > 100 µM | TGI (SK-MEL-28 melanoma): > 100 µM | GI50 (SK-MEL-5 melanoma): 5.66 µM | TGI (SK-MEL-5 melanoma): 26.9 µM | GI50 (SK-OV-3 ovarian): 65.7 µM | TGI (SK-OV-3 ovarian): > 100 µM | GI50 (SN12C renal): 13.1 µM | TGI (SN12C renal): 39.9 µM | GI50 (SNB-19 CNS): 44.1 µM | TGI (SNB-19 CNS): > 100 µM | GI50 (SNB-75 CNS): 31.8 µM | TGI (SNB-75 CNS): 89.2 µM | GI50 (SW-620 colon): 18.8 µM | TGI (SW-620 colon): 62.8 µM | GI50 (T-47D breast): 36.9 µM | TGI (T-47D breast): > 100 µM | GI50 (TK-10 renal): 14.1 µM | TGI (TK-10 renal): 42.1 µM | GI50 (U251 CNS): 12.7 µM | TGI (U251 CNS): 32.1 µM | GI50 (UACC-257 melanoma): 6.21 µM | TGI (UACC-257 melanoma): 32 µM | GI50 (UACC-62 melanoma): 11.6 µM | TGI (UACC-62 melanoma): 28.2 µM | GI50 (UO-31 renal): 58.2 µM | TGI (UO-31 renal): > 100 µM
